Data as given in patent publication US5612453A, “Selected peptides of the group-specific antigen (gag) of human immunodeficiency virus (HIV), the preparation and use thereof” (Chiron Behring GmbH & Co., priority 1990, dated 1997).

Key:
Format in all cases: cell-based
[1] = system: HIV-1 virus strain HTLV-IIIB; experiment: p24 detection by Western blot in HIV-infected cells after gag peptide treatment; settings: two weeks after infection, Western blot with anti-p24 MAbs
Method: (§1) Cells. Permanently growing T lymphocytes (Jurkat or H9 cells) were used for the in vitro experiments. The medium used was conventional RPMI 1640 with 10% FCS, 2% NaHCO3 (5% strength), 1% penicillin/streptavidin solution and 2 mg/l Polybrene. The experiments were carried out either in 96-well microtiter plates (Nunc) or in 24-well plates (Nunc).
(§2) Viruses. HIV-1 virus strain HTLV-IIIB and HIV-2 strain ROD were used.
In the first experiment, 50 μl of 1×10^6 jurkat cells/ml were pipetted into each well of 96-well plates, and each was infected with 50 μl (1000 TCID50) HTLV-IIIB. The gag peptide concentration was adjusted to 200 μg/ml or 40 μg/ml. After one week, 100 μl of supernatant were removed and any cells still present were removed by centrifugation. Then 80 μl of supernatant were placed on an uninfected jurkat cell culture. Viral antigen was detected in the infected cells by immunolabeling after a Western blot. For this, the cells remaining after the inhibition experiment were taken up in 2×SDS-PAGE sample buffer and fractionated in a 14% PAG. The fractionated proteins were then blotted onto a nitrocellulose membrane and incubated with an anti-p24 HIV-1 monoclonal antibody to detect viral proteins. […] Infectious HIV in the supernatant of the peptide-treated cells was analyzed by the reverse transcriptase assay. […]

[2] = system: HIV-1 virus strain HTLV-IIIB; experiment: Inhibition of HIV-1 synthesis: infectious virus / reverse transcriptase activity in detector cell culture supernatant; settings: for inhibitory effect on HIV-1 synthesis (reverse transcriptase activity of detector culture supernatant): Experiment 3 (FIG. 3), 100 TCID50 HIV-1, jurkat cells, detector cultures incubated two weeks; for inhibitory effect on HIV-1 synthesis: Experiments 1 and 2, jurkat cells, 1000 or 100 TCID50 HTLV-IIIB, peptide 200 or 40 μg/ml
Method: These peptides were added in various concentrations (200-40 μg/ml) to freshly infected jurkat cells. Infection was carried out with 100-1000 TCID50. The infection was analyzed by microscopic assessment and investigation of the supernatant for the content of infectious HIV. For this purpose, the cell supernatant was added to non-infected jurkat cells. After incubation for two weeks, this detector cell culture was examined for HIV under the microscope and by reverse transcriptase assay.
Permanently growing T lymphocytes (Jurkat or H9 cells) were used for the in vitro experiments. The medium used was conventional RPMI 1640 with 10% FCS, 2% NaHCO3 (5% strength), 1% penicillin/streptavidin solution and 2 mg/l Polybrene. The experiments were carried out either in 96-well microtiter plates (Nunc) or in 24-well plates (Nunc).
HIV-1 virus strain HTLV-IIIB and HIV-2 strain ROD were used.
(§3) Reverse transcriptase assay. The microassay for detecting viral reverse transcriptase was carried out by the method of Gregersen et al. (Gregersen et al. (1988) Detection of human immunodeficiency virus and other retroviruses in cell culture supernatants by a reverse transcriptase microassay. J. Virol. Methods 19, 161-168). Cell culture supernatants were concentrated five-fold by PEG precipitation. Positive controls (VC) were supernatants of untreated infected cell cultures, and negative controls (NC) were cell culture supernatants from uninfected cells. The value measured for the NC was doubled and used as value for excluding negative cells.
In the first experiment, 50 μl of 1×10^6 jurkat cells/ml were pipetted into each well of 96-well plates, and each was infected with 50 μl (1000 TCID50) HTLV-IIIB. The gag peptide concentration was adjusted to 200 μg/ml or 40 μg/ml. After one week, 100 μl of supernatant were removed and any cells still present were removed by centrifugation. Then 80 μl of supernatant were placed on an uninfected jurkat cell culture. […] Infectious HIV in the supernatant of the peptide-treated cells was analyzed by the reverse transcriptase assay.
1000 TCID50 HIV-1 were employed for infecting the jurkat cells. Reverse transcriptase activity measured in cpm in the cell culture supernatant from the detector cell culture. The supernatant was concentrated five-fold by PEG precipitation. VC=virus control; NC=negative control. Twice the NC value was used to exclude negative cell cultures. To improve clarity, the RT values are reported in the figure in logarithmic presentation.
100 TCID50 HIV-1 were employed to infect the jurkat cells. Reverse transcriptase activity measured in cpm in the cell culture supernatant from the detector cell culture. The supernatant was concentrated five-fold by PEG precipitation. VC=virus control; NC=negative control.

HIV-2 strain ROD = experiment: Inhibition of HIV-2 synthesis: reverse transcriptase activity in detector cell culture supernatant (Experiment 3); settings: Experiment 3 (FIG. 3); 100 TCID50 HIV-2, H9 cells
Method: as §1, §2, §3
H9 cells were infected with 100 TCID50 HIV-2 for this experiment. […]
100 TCID50 HIV-1 and HIV-2 were employed to infect the jurkat and H9 cells respectively. Reverse transcriptase activity measured in cpm in the cell culture supernatant from the detector cell culture. […]

Sequence | p24 Detection [1] | inhibitory effect on HIV-1 synthesis (reverse transcriptase activity of detector culture supernatant) [2] | inhibitory effect on HIV-1 synthesis [2] | inhibition of HIV-2 synthesis (reverse transcriptase activity of detector culture supernatant) (HIV-2 strain ROD)
NPGLLETSEGCROILGQLQPSLQT [Peptide 5] | (+) | strong inhibitory effect | exerted an inhibitory effect on HIV-1 synthesis | very clearly evident
WASRELERFAVNPGLLETSEGCRQ [Peptide 4, synthetic gag peptide from the p17 submembrane protein] | - | strong inhibitory effect | exerted an inhibitory effect on HIV-1 synthesis | very clearly evident
